BindingDB's records for doi:10.1021/jm9600095 (Institut De Chimie Des Substances Naturelles Cnrs, 1997)

Assay: Reverse transcriptase activity was measured in the culture supernatant, concentration that reduces by 50% the HIV produced in the supernatant.

Structure (SMILES)	EC50 [nM]
COCCOCn1c(=O)c(C)cn(C2CC(N=[N+]=[N-])C(CO)O2)c1=O (stereo not given) [1-(4-Azido-5-hydroxymethyl-tetrahydro-furan-2-yl)-3-(2-methoxy-ethoxymethyl)-5-methyl-1H-pyrimidine-2,4-dione]	140000
Cc1cn(C2CC(N=[N+]=[N-])C(CO)O2)c(=O)n(CCn2c(=O)c(C)cn(C3CC(N=[N+]=[N-])C(CO)O3)c2=O)c1=O (stereo not given) [1-(4-azido-5-hydroxymethyltetrahydro-2-furanyl)-3-{2-[1-(4-azido-5-hydroxymethyltetrahydro-2-furanyl)-5-methyl-2,4-dioxo-1,2,3,4-tetrahydro-3-pyrimidinyl]ethyl}-5-methyl-1,2,3,4-tetrahydro-2,4-pyrimidinedione]	1400
Cc1cn(C2CC(N=[N+]=[N-])C(CO)O2)c(=O)n(CC2COC(C)(C)O2)c1=O (stereo not given) [1-(4-Azido-5-hydroxymethyl-tetrahydro-furan-2-yl)-3-(2,2-dimethyl-[1,3]dioxolan-4-ylmethyl)-5-methyl-1H-pyrimidine-2,4-dione]	13000
Cc1cn(C2CC(N=[N+]=[N-])C(CO)O2)c(=O)n(CCN=[N+]=[N-])c1=O (stereo not given) [3-(2-Azido-ethyl)-1-(4-azido-5-hydroxymethyl-tetrahydro-furan-2-yl)-5-methyl-1H-pyrimidine-2,4-dione]	1500
CCOC(Cn1c(=O)c(C)cn(C2CC(N=[N+]=[N-])C(CO)O2)c1=O)OCC (stereo not given) [1-(4-Azido-5-hydroxymethyl-tetrahydro-furan-2-yl)-3-(2,2-diethoxy-ethyl)-5-methyl-1H-pyrimidine-2,4-dione]	1500
Cc1cn(C2CC(N=[N+]=[N-])C(CO)O2)c(=O)n(CCCCCCO)c1=O (stereo not given) [1-(4-Azido-5-hydroxymethyl-tetrahydro-furan-2-yl)-3-(6-hydroxy-hexyl)-5-methyl-1H-pyrimidine-2,4-dione]	1200
C=CCn1c(=O)c(C)cn(C2CC(N=[N+]=[N-])C(CO)O2)c1=O (stereo not given) [3-Allyl-1-(4-azido-5-hydroxymethyl-tetrahydro-furan-2-yl)-5-methyl-1H-pyrimidine-2,4-dione]	65000
CCOC(=O)Cn1c(=O)c(C)cn(C2CC(N=[N+]=[N-])C(CO)O2)c1=O (stereo not given) [[3-(4-Azido-5-hydroxymethyl-tetrahydro-furan-2-yl)-5-methyl-2,6-dioxo-3,6-dihydro-2H-pyrimidin-1-yl]-acetic acid ethyl ester]	14000
Cc1cn(C2CC(N=[N+]=[N-])C(CO)O2)c(=O)n(CCCO)c1=O (stereo not given) [1-(4-Azido-5-hydroxymethyl-tetrahydro-furan-2-yl)-3-(3-hydroxy-propyl)-5-methyl-1H-pyrimidine-2,4-dione]	120
Cc1cn(C2CC(N=[N+]=[N-])C(CO)O2)c(=O)n(CCO)c1=O (stereo not given) [1-(4-Azido-5-hydroxymethyl-tetrahydro-furan-2-yl)-3-(2-hydroxy-ethyl)-5-methyl-1H-pyrimidine-2,4-dione]	90
Cc1cn(C2CC(n3c(=O)c(C)cn(C4CC(N=[N+]=[N-])C(CO)O4)c3=O)C(CO)O2)c(=O)[nH]c1=O (stereo not given) [1-(4-Azido-5-hydroxymethyl-tetrahydro-furan-2-yl)-3-[2-hydroxymethyl-5-(5-methyl-2,4-dioxo-3,4-dihydro-2H-pyrimidin-1-yl)-tetrahydro-furan-3-yl]-5-methyl-1H-pyrimidine-2,4-dione]	100
Cc1cn(C2CC(N=[N+]=[N-])C(CO)O2)c(=O)n(N)c1=O (stereo not given) [3-Amino-1-(4-azido-5-hydroxymethyl-tetrahydro-furan-2-yl)-5-methyl-1H-pyrimidine-2,4-dione]	500
CCOP(=O)(Cn1c(=O)c(C)cn(C2CC(N=[N+]=[N-])C(CO)O2)c1=O)OCC (stereo not given) [[3-(4-Azido-5-hydroxymethyl-tetrahydro-furan-2-yl)-5-methyl-2,6-dioxo-3,6-dihydro-2H-pyrimidin-1-ylmethyl]-phosphonic acid diethyl ester]	4700
Cc1cn(C2CC(N=[N+]=[N-])C(CO)O2)c(=O)n(CC2CC(CO)=NO2)c1=O (stereo not given) [1-(4-Azido-5-hydroxymethyl-tetrahydro-furan-2-yl)-3-(3-hydroxymethyl-4,5-dihydro-isoxazol-5-ylmethyl)-5-methyl-1H-pyrimidine-2,4-dione]	1300
COc1nc(=O)n(CCn2c(=O)c(C)cn(C3CC(N=[N+]=[N-])C(CO)O3)c2=O)cc1C (stereo not given) [1-(4-Azido-5-hydroxymethyl-tetrahydro-furan-2-yl)-3-[2-(4-methoxy-5-methyl-2-oxo-2H-pyrimidin-1-yl)-ethyl]-5-methyl-1H-pyrimidine-2,4-dione]	> 29000
